Patent US4606911A, “Pharmaceutical composition for the prevention of dental caries” (Rohto Pharmaceutical Co. Ltd., priority 1984, dated 1986)
Converted amounts (≈) assume the structure as drawn. “Also recorded” adds a separate entry of the source.

Key:
Format in all cases: cell-based
[1] = tested on: Streptococcus mutans OMZ 176; assay: Antibacterial activity (MIC, growth in BHI medium); design: key to Antibacterial activity (growth): -: grow; ±: slightly grow; +: not grow; settings: for antibacterial activity to S. mutans (in words): text statement
Experimental: (§1) To a test tube was charged 3.8 ml of Brain Heart Infusion (BHI) medium, and 100 μl of a sample solution containing oleanolic, ursolic or glycyrrhetic acid and 100 μl of pre-incubated culture of bacterium selected from those listed below were added thereto. The mixture was incubated at 37° C. and then allowed to stand over night. The extent of the growth of bacterium was observed after two or five days.
Streptococcus mutans OMZ 176

[2] = tested on: Streptococcus salivarius ATCC 9222; assay: Antibacterial activity (MIC, growth in BHI medium); design: key to Antibacterial activity (growth): -: grow; ±: slightly grow; +: not grow
Experimental: To a test tube was charged 3.8 ml of Brain Heart Infusion (BHI) medium, and 100 μl of a sample solution containing oleanolic, ursolic or glycyrrhetic acid and 100 μl of pre-incubated culture of bacterium selected from those listed below were added thereto. The mixture was incubated at 37° C. and then allowed to stand over night. The extent of the growth of bacterium was observed after two or five days. The MIC value was determined for each sample and summarized in Table 2. |Streptococcus salivarius ATCC 9222

[3] = tested on: Bacillus megaterium QM B1551; assay: Antibacterial activity (MIC, growth in BHI medium); design: key to Antibacterial activity (growth): -: grow; ±: slightly grow; +: not grow
Experimental: To a test tube was charged 3.8 ml of Brain Heart Infusion (BHI) medium, and 100 μl of a sample solution containing oleanolic, ursolic or glycyrrhetic acid and 100 μl of pre-incubated culture of bacterium selected from those listed below were added thereto. The mixture was incubated at 37° C. and then allowed to stand over night. The extent of the growth of bacterium was observed after two or five days. The MIC value was determined for each sample and summarized in Table 2. |Bacillus megaterium QM B1551

[4] = tested on: Staphylococcus aureus 209P; assay: Antibacterial activity (MIC, growth in BHI medium); design: key to Antibacterial activity (growth): -: grow; ±: slightly grow; +: not grow
Experimental: To a test tube was charged 3.8 ml of Brain Heart Infusion (BHI) medium, and 100 μl of a sample solution containing oleanolic, ursolic or glycyrrhetic acid and 100 μl of pre-incubated culture of bacterium selected from those listed below were added thereto. The mixture was incubated at 37° C. and then allowed to stand over night. The extent of the growth of bacterium was observed after two or five days. The MIC value was determined for each sample and summarized in Table 2. |Staphylococcus aureus […]

Esherichia coli K12 = assay: Antibacterial activity (MIC, growth in BHI medium); design: key to Antibacterial activity (growth): -: grow; ±: slightly grow; +: not grow
Experimental: as §1
Esherichia coli K12 (Gram negative)

[5] = tested on: Serratia marcescens IFO 12648; assay: Antibacterial activity (MIC, growth in BHI medium); design: key to Antibacterial activity (growth): -: grow; ±: slightly grow; +: not grow
Experimental: To a test tube was charged 3.8 ml of Brain Heart Infusion (BHI) medium, and 100 μl of a sample solution containing oleanolic, ursolic or glycyrrhetic acid and 100 μl of pre-incubated culture of bacterium selected from those listed below were added thereto. The mixture was incubated at 37° C. and then allowed to stand over night. The extent of the growth of bacterium was observed after two or five days. The MIC value was determined for each sample and summarized in Table 2. |Serratia marcescens IFO 12648

[6] = tested on: Pseudomonas aeruginosa KM338; assay: Antibacterial activity (MIC, growth in BHI medium); design: key to Antibacterial activity (growth): -: grow; ±: slightly grow; +: not grow
Experimental: To a test tube was charged 3.8 ml of Brain Heart Infusion (BHI) medium, and 100 μl of a sample solution containing oleanolic, ursolic or glycyrrhetic acid and 100 μl of pre-incubated culture of bacterium selected from those listed below were added thereto. The mixture was incubated at 37° C. and then allowed to stand over night. The extent of the growth of bacterium was observed after two or five days. The MIC value was determined for each sample and summarized in Table 2. |Pseudomonas aeruginosa KM338

bacterial cells = assay: Adherence of bacterial cells to the surface of an extracted tooth; settings: extracted tooth suspended in a culture medium containing sucrose

Compound: CC1(C)CC[C@]2(C(=O)O)CC[C@]3(C)C(=CC[C@@H]4[C@@]5(C)CC[C@H](O)C(C)(C)[C@@H]5CC[C@]43C)[C@@H]2C1 [Oleanolic acid]
- Antibacterial activity (growth) ([1]; 10 μg/ml): -
- antibacterial activity at 10 μg/ml (in words) ([1]; 10 μg/ml): ineffective for exhibiting antibacterial activity
- Antibacterial activity (growth) ([1]; 25 μg/ml): -
- Antibacterial activity (growth) ([1]; 50 μg/ml): ±
- Antibacterial activity (growth) ([1]; 100 μg/ml): ±
- Antibacterial activity (growth) ([1]; 200 μg/ml): ±
- Antibacterial activity (growth) ([1]; 400 μg/ml): ±
- MIC ([1]; Streptococcus mutans, OMZ176, Streptococcus mutans OMZ 176, BHI, 37° C., read-out: MIC (minimum inhibitory concentration)): 400 µg/mL (≈ 876 µM)
- antibacterial activity to S. mutans (in words) [1]: also exhibit the selective activity on S. mutans, although the magnitude of the activity is each less than that of glycyrrthetic acid
- antibacterial activity to S. mutans (in words) ([1]; listed as oleanolic acid): have both of the adherence-inhibiting activity and the selective antibacterial activity to S. mutans; also recorded: have both activities
- Antibacterial activity (growth) ([2]; 10 μg/ml): -
- Antibacterial activity (growth) ([2]; 25 μg/ml): -
- Antibacterial activity (growth) ([2]; 50 μg/ml): -
- Antibacterial activity (growth) ([2]; 100 μg/ml): -
- Antibacterial activity (growth) ([2]; 200 μg/ml): ±
- Antibacterial activity (growth) ([2]; 400 μg/ml): +
- MIC ([2]; ATCC9222, Streptococcus salivarius, BHI, 37° C., read-out: MIC (minimum inhibitory concentration)): 400 µg/mL (≈ 876 µM)
- Antibacterial activity (growth) ([3]; 10 μg/ml): -
- Antibacterial activity (growth) ([3]; 25 μg/ml): -
- Antibacterial activity (growth) ([3]; 50 μg/ml): -
- Antibacterial activity (growth) ([3]; 100 μg/ml): -
- Antibacterial activity (growth) ([3]; 200 μg/ml): -
- Antibacterial activity (growth) ([3]; 400 μg/ml): -
- MIC ([3]; Priestia megaterium, QMB1551, Bacillus megaterium, BHI, 37° C., read-out: MIC (minimum inhibitory concentration)): > 400 µg/mL
- Antibacterial activity (growth) ([4]; 10 μg/ml): -
- Antibacterial activity (growth) ([4]; 25 μg/ml): -
- Antibacterial activity (growth) ([4]; 50 μg/ml): -
- Antibacterial activity (growth) ([4]; 100 μg/ml): -
- Antibacterial activity (growth) ([4]; 200 μg/ml): -
- Antibacterial activity (growth) ([4]; 400 μg/ml): -
- MIC ([4]; 209P, Staphylococcus aureus, BHI, 37° C., read-out: MIC (minimum inhibitory concentration)): > 400 µg/mL
- Antibacterial activity (growth) (Esherichia coli K12; 10 μg/ml): -
- Antibacterial activity (growth) (Esherichia coli K12; 25 μg/ml): -
- Antibacterial activity (growth) (Esherichia coli K12; 50 μg/ml): -
- Antibacterial activity (growth) (Esherichia coli K12; 100 μg/ml): -
- Antibacterial activity (growth) (Esherichia coli K12; 200 μg/ml): -
- Antibacterial activity (growth) (Esherichia coli K12; 400 μg/ml): -
- MIC (Esherichia coli K12; Esherichia coli, BHI, 37° C., read-out: MIC (minimum inhibitory concentration)): > 400 µg/mL
- Antibacterial activity (growth) ([5]; 10 μg/ml): -
- Antibacterial activity (growth) ([5]; 25 μg/ml): -
- Antibacterial activity (growth) ([5]; 50 μg/ml): -
- Antibacterial activity (growth) ([5]; 100 μg/ml): -
- Antibacterial activity (growth) ([5]; 200 μg/ml): -
- Antibacterial activity (growth) ([5]; 400 μg/ml): -
- MIC ([5]; IFO12648, Serratia marcescens, BHI, 37° C., read-out: MIC (minimum inhibitory concentration)): > 400 µg/mL
- Antibacterial activity (growth) ([6]; 10 μg/ml): -
- Antibacterial activity (growth) ([6]; 25 μg/ml): -
- Antibacterial activity (growth) ([6]; 50 μg/ml): -
- Antibacterial activity (growth) ([6]; 100 μg/ml): -
- Antibacterial activity (growth) ([6]; 200 μg/ml): -
- Antibacterial activity (growth) ([6]; 400 μg/ml): -
- MIC ([6]; KM338, Pseudomonas aeruginosa, BHI, 37° C., read-out: MIC (minimum inhibitory concentration)): > 400 µg/mL
- adherence of bacterial cells to the surface of an extracted tooth (bacterial cells): completely inhibited
